Reference: US11284623B2 (priority 2012, dated 2022)
Read-outs that look alike come from different tables or passages of the source.

Columns and labels:
Format in all cases: in vivo
[1] = test system: Fusarium graminearum; details: 5 g ai per 100 kg seeds; corn, lower roots; % of untreated control (Abbot)
[2] = test system: Fusarium graminearum; details: 5 g ai per 100 kg seeds; corn, mesocotyl
[3] = test system: Rhizoctonia solani (AG 2); assay: Use example FG-8: efficacy against R. solani on roots, pot trials, seed treatment; details: 10 g ai per 100 kg seeds
Experimental: (§1) Triticonazole was applied as commercial seed treatment formulation PREMIS 25 FS (25 g/L a.i., BASF SE, Ludwigshafen, Germany). Pyraclostrobin was applied as commercial seed treatment formulation STAMINA (200 g/L a.i., BASF SE, Ludwigshafen, Germany).
(§2) In 4 pot tests in the greenhouse in Limburgerhof, Bacillus subtilis MBI600, as SC formulation of spores with CFU of about 4×10^11 per ml, was tested in the crops corn and rape seed against different pathogens (Fusarium, Rhizoctonia, Scleroftinia) as solo product and in combination with triticonazole or pyraclostrobin. […]
(§3) The efficacy (E) was calculated using the Abbot's formula: E=(1−α/β)·100 • α corresponds to the fungicidal infection of the treated plants in % and • β corresponds to the fungicidal infection of the untreated (control) plants in %
(§4) The expected efficacies of active compound combinations were determined using Colby's formula (Colby, S. R. “Calculating synergistic and antagonistic responses of herbicide combinations”, Weeds 15, pp. 20-22, 1967) and compared with the observed efficacies. […]
(§5) For the assessment, the roots were washed out to evaluate the disease symptoms on the roots. […] In corn in addition the disease symptoms on the first leaf were evaluated according to a 2 class evaluation. […]

[4] = test system: Rhizoctonia solani (AG 2); assay: Use example FG-8: root mass affected by R. solani, pot trials, seed treatment; details: 10 g ai per 100 kg seeds; corn infected with R. solani
Experimental: as §1
as §2, with “pyraclostrobin. The application of the different products was done as seed treatment and the seeds were treated in the BASF Seed Solutions Technology Center (SSTC) Limburgerhof using a batch lab treater.” for “pyraclostrobin.”
as §4
For the assessment, the roots were washed out to evaluate the disease symptoms on the roots. […] In corn in addition the disease symptoms on the first leaf were evaluated according to a 2 class evaluation. The figures from the class evaluation were converted into efficacies in % of the untreated control and the efficacy (E) was calculated as follows using Abbot's formula.

[5] = test system: Rhizoctonia solani (AG 2); assay: Use example FG-8: efficacy against R. solani assessed on first leaf, pot trials, seed treatment; details: 10 g ai per 100 kg seeds, corn
Experimental: as §1, §2, §3, §4, §5

Compound | Observed efficacy [1] | Observed efficacy [2] | Observed efficacy (%) [3] | Root mass in % of uninfected control [4] | Observed efficacy (%) [5]
CC1(C)CCC(=Cc2ccc(Cl)cc2)C1(O)Cn1cncn1 (centres unmarked) [Triticonazole] | 39.8% | 60% |  |  | 
COC(=O)N(OC)c1ccccc1COc1ccn(-c2ccc(Cl)cc2)n1 [Pyraclostrobin] |  |  | 28.7% | 23.3% | 1.9%
